Test results taken from ChEMBL document CHEMBL3603789, “N-Lipidated Peptide Dimers: Effective Antibacterial Agents against Gram-Negative Pathogens through Lipopolysaccharide Permeabilization” (J Med Chem, 2015).
Values after ≈ are worked out from the molar mass of the structure shown. Bridge positions count the residues as written; N and C are the ends. Peptide text beside a SMILES is read from it. I, II: the chains in the order shown. * marks the point of attachment. Palmitoyl = CCCCCCCCCCCCCCCC(=O)*; Hexanoyl = CCCCCC(=O)*

Key:
Klebsiella pneumoniae [1] = experiment: Antibacterial activity against Klebsiella pneumoniae DM4299 after 24 hrs by broth microdilution method; assay type: functional; settings: DM4299, 24 h
Klebsiella pneumoniae [2] = experiment: Antibacterial activity against Klebsiella pneumoniae DU31158 after 24 hrs by broth microdilution method; assay type: functional; settings: DU31158, 24 h
Escherichia coli [3] = experiment: Antibacterial activity against Escherichia coli ATCC 25922 after 24 hrs by broth microdilution method; assay type: functional; settings: ATCC 25922, 24 h
Pseudomonas aeruginosa [4] = experiment: Antibacterial activity against Pseudomonas aeruginosa DM23155 after 24 hrs by broth microdilution method; assay type: functional; settings: DM23155, 24 h
Klebsiella pneumoniae [5] = experiment: Antibacterial activity against Klebsiella pneumoniae DS07955 after 24 hrs by broth microdilution method; assay type: functional; settings: DS07955, 24 h
[6] = Induction of calcein leakage from DOPE/DOPG artificial membrane at 1:32 ratio of compound to lipid by fluorescence assay; assay type: physicochemical
Pseudomonas aeruginosa [7] = experiment: Antibacterial activity against Pseudomonas aeruginosa DM23155 after 24 hrs by checkerboard assay in presence of erythromycin; assay type: functional
Escherichia coli [8] = experiment: Antibacterial activity against Escherichia coli DS17232 after 24 hrs by broth microdilution method; assay type: functional; settings: DS17232, 24 h
Escherichia coli [9] = experiment: Antibacterial activity against Escherichia coli ATCC 25922 after 24 hrs by checkerboard assay in presence of gentamicin; assay type: functional
Escherichia coli [10] = experiment: Antibacterial activity against Escherichia coli ATCC 25922 after 24 hrs by checkerboard assay in presence of nalidixic acid; assay type: functional
Lipopolysaccharide (LPS) [11] = experiment: Induction of Escherichia coli 0111:B4 LPS neutralization using p-nitroaniline assessed as concentration required to neutralize 50% after 1 hr by limulus amebocyte lysate assay
Pseudomonas aeruginosa [12] = experiment: Antibacterial activity against Pseudomonas aeruginosa DM23155 after 24 hrs by checkerboard assay in presence of gentamicin; assay type: functional
Escherichia coli [13] = experiment: Antibacterial activity against Escherichia coli ATCC 25922 after 24 hrs by checkerboard assay in presence of erythromycin; assay type: functional
Lipopolysaccharide (LPS) [14] = experiment: Displacement of dansylcadaverine from Escherichia coli 0111:B4 LPS at 15 to 30 uM after 5 mins by high-throughput fluorescence displacement assay
Pseudomonas aeruginosa [15] = experiment: Antibacterial activity against Pseudomonas aeruginosa DM23155 after 24 hrs by checkerboard assay in presence of streptomycin; assay type: functional
Escherichia coli [16] = experiment: Antibacterial activity against Escherichia coli DM17528 after 24 hrs by broth microdilution method; assay type: functional; settings: DM17528, 24 h
Klebsiella pneumoniae [17] = experiment: Antibacterial activity against Klebsiella pneumoniae DB55301 after 24 hrs by broth microdilution method; assay type: functional; settings: DB55301, 24 h
Escherichia coli [18] = experiment: Antibacterial activity against Escherichia coli ATCC 25922 after 24 hrs by checkerboard assay in presence of streptomycin; assay type: functional
Pseudomonas aeruginosa [19] = experiment: Induction of cytoplasmic membrane disruption in Pseudomonas aeruginosa DM23155 assessed as membrane integrity at 1 to 2 times MIC after 1 hr by fluorescence assay; assay type: functional
Pseudomonas aeruginosa [20] = experiment: Antibacterial activity against Pseudomonas aeruginosa DM23155 after 24 hrs by checkerboard assay in presence of nalidixic acid; assay type: functional
[21] = Toxicity in New Zealand white rabbit erythrocytes assessed as hemolytic activity after 60 mins; assay type: cell-based, Oryctolagus cuniculus; settings: erythrocyte, 1 h
Escherichia coli [22] = experiment: Antibacterial activity against Escherichia coli ATCC 25922 after 24 hrs by checkerboard assay in presence of kanamycin; assay type: functional
Pseudomonas aeruginosa [23] = experiment: Antibacterial activity against Pseudomonas aeruginosa DM23155 after 24 hrs by checkerboard assay in presence of kanamycin; assay type: functional
Klebsiella pneumoniae [24] = experiment: Antibacterial activity against Klebsiella pneumoniae DS16260 after 24 hrs by broth microdilution method; assay type: functional; settings: DS16260, 24 h
[25] = Induction of calcein leakage from DOPC artificial membrane at 1:32 ratio of compound to lipid by fluorescence assay; assay type: physicochemical
[26] = Self-aggregation activity of the compound using 8-(Phenylamino)-1-naphthalenesulfonic acid as fluorescent probe at 300 uM by fluorescence assay in presence of 150 mM of NaCl; assay type: physicochemical
[27] = Self-aggregation activity of the compound using 8-(Phenylamino)-1-naphthalenesulfonic acid as fluorescent probe at 100 uM by fluorescence assay; assay type: physicochemical
[28] = Self-aggregation activity of the compound using 8-(Phenylamino)-1-naphthalenesulfonic acid as fluorescent probe at 20 uM by fluorescence assay; assay type: physicochemical
Pseudomonas aeruginosa [29] = experiment: Induction of 1-N-phenylnaphthylamine uptake in Pseudomonas aeruginosa DM23155 at 400 uM after 1 hr by fluorescence assay relative to polymyxin B; assay type: functional

CCCCCC(=O)N[C@@H](CCCNC(=N)N)C(=O)NCC(=O)N[C@@H](CCCNC(=N)N)C(=O)N[C@@H](CCCCN)C(=O)N[C@H](C(=O)N[C@H](C(=O)N[C@@H](CCCNC(=N)N)C(=O)N[C@@H](CCCNC(=N)N)C(=O)NCCCC[C@H](NC(=O)[C@H](CCCNC(=N)N)NC(=O)[C@H](CCCNC(=N)N)NC(=O)[C@@H](NC(=O)[C@@H](NC(=O)[C@H](CCCCN)NC(=O)[C@H](CCCNC(=N)N)NC(=O)CNC(=O)[C@H](CCCNC(=N)N)NC(=O)CCCCC)C(C)C)C(C)C)C(=O)N[C@@H](CCCCN)C(=O)O)C(C)C)C(C)C (I: Hexanoyl-RGRKVVRRKK-OH / II: Hexanoyl-RGRKVVRR; amide I:9-II:C)
MIC (Klebsiella pneumoniae [1]): 6 µM (≈ 14.9 µg/mL)
MIC (Klebsiella pneumoniae [2]): 10 µM (≈ 24.9 µg/mL)
MIC (Escherichia coli [3]): 3 µM (≈ 7.46 µg/mL)
MIC (Pseudomonas aeruginosa [4]): 6 µM (≈ 14.9 µg/mL)
MIC (Klebsiella pneumoniae [5]): 10 µM (≈ 24.9 µg/mL)
Activity [6]: Active
fractional inhibitory concentration index (FICI) (Pseudomonas aeruginosa [7]): 0.38
MIC (Escherichia coli [8]): 10 µM (≈ 24.9 µg/mL)
fractional inhibitory concentration index (FICI) (Escherichia coli [9]): 0.38
fractional inhibitory concentration index (FICI) (Escherichia coli [10]): 0.5
EC50 (Lipopolysaccharide (LPS) [11]): 187 µM
fractional inhibitory concentration index (FICI) (Pseudomonas aeruginosa [12]): 0.25
fractional inhibitory concentration index (FICI) (Escherichia coli [13]): 0.38
Activity (Lipopolysaccharide (LPS) [14]): 100%
fractional inhibitory concentration index (FICI) (Pseudomonas aeruginosa [15]): 0.38
MIC (Escherichia coli [16]): 10 µM (≈ 24.9 µg/mL)
MIC (Klebsiella pneumoniae [17]): 10 µM (≈ 24.9 µg/mL)
fractional inhibitory concentration index (FICI) (Escherichia coli [18]): 0.38
Activity (Pseudomonas aeruginosa [19]): >80%
fractional inhibitory concentration index (FICI) (Pseudomonas aeruginosa [20]): 0.38
HC10 [21]: > 10000 µg/mL
fractional inhibitory concentration index (FICI) (Escherichia coli [22]): 0.5
fractional inhibitory concentration index (FICI) (Pseudomonas aeruginosa [23]): 0.31
MIC (Klebsiella pneumoniae [24]): 3 µM (≈ 7.46 µg/mL)

CCCCCCCCCCCCCCCC(=O)N[C@@H](CCCNC(=N)N)C(=O)NCC(=O)N[C@@H](CCCNC(=N)N)C(=O)N[C@@H](CCCCN)C(=O)N[C@H](C(=O)N[C@H](C(=O)N[C@@H](CCCNC(=N)N)C(=O)N[C@@H](CCCNC(=N)N)C(=O)NCCCC[C@H](NC(=O)[C@H](CCCNC(=N)N)NC(=O)[C@H](CCCNC(=N)N)NC(=O)[C@@H](NC(=O)[C@@H](NC(=O)[C@H](CCCCN)NC(=O)[C@H](CCCNC(=N)N)NC(=O)CNC(=O)[C@H](CCCNC(=N)N)NC(=O)CCCCCCCCCCCCCCC)C(C)C)C(C)C)C(=O)N[C@@H](CCCCN)C(=O)O)C(C)C)C(C)C (I: Palmitoyl-RGRKVVRRKK-OH / II: Palmitoyl-RGRKVVRR; amide I:9-II:C)
MIC (Klebsiella pneumoniae [1]): > 40 µM
Activity [25]: Active
Activity [26]: Active
MIC (Escherichia coli [3]): 10 µM (≈ 27.7 µg/mL)
Activity [27]: 50%
MIC (Pseudomonas aeruginosa [4]): > 40 µM
Activity [6]: Active
EC50 (Lipopolysaccharide (LPS) [11]): 47.9 µM
Activity [28]: 50%
Activity (Lipopolysaccharide (LPS) [14]): 151%
Activity (Pseudomonas aeruginosa [19]): <50%
HC10 [21]: 114 µg/mL

CCCCCC(=O)N[C@@H](CCCNC(=N)N)C(=O)NCC(=O)N[C@@H](CCCNC(=N)N)C(=O)N[C@@H](CCCCN)C(=O)NCC(=O)NCC(=O)N[C@@H](CCCNC(=N)N)C(=O)N[C@@H](CCCNC(=N)N)C(=O)NCCCC[C@H](NC(=O)[C@H](CCCNC(=N)N)NC(=O)[C@H](CCCNC(=N)N)NC(=O)CNC(=O)CNC(=O)[C@H](CCCCN)NC(=O)[C@H](CCCNC(=N)N)NC(=O)CNC(=O)[C@H](CCCNC(=N)N)NC(=O)CCCCC)C(=O)N[C@@H](CCCCN)C(=O)O (I: Hexanoyl-RGRKGGRRKK-OH / II: Hexanoyl-RGRKGGRR; amide I:9-II:C)
MIC (Klebsiella pneumoniae [1]): 3 µM (≈ 6.96 µg/mL)
MIC (Escherichia coli [3]): 3 µM (≈ 6.96 µg/mL)
MIC (Pseudomonas aeruginosa [4]): 3 µM (≈ 6.96 µg/mL)
fractional inhibitory concentration index (FICI) (Pseudomonas aeruginosa [7]): 0.56
fractional inhibitory concentration index (FICI) (Escherichia coli [9]): 0.56
fractional inhibitory concentration index (FICI) (Escherichia coli [10]): 0.75
EC50 (Lipopolysaccharide (LPS) [11]): 413 µM
fractional inhibitory concentration index (FICI) (Pseudomonas aeruginosa [12]): 0.31
fractional inhibitory concentration index (FICI) (Escherichia coli [13]): 0.75
Activity (Lipopolysaccharide (LPS) [14]): 86.4%
fractional inhibitory concentration index (FICI) (Pseudomonas aeruginosa [15]): 0.5
fractional inhibitory concentration index (FICI) (Escherichia coli [18]): 0.38
fractional inhibitory concentration index (FICI) (Pseudomonas aeruginosa [20]): 0.63
HC10 [21]: > 10000 µg/mL
Activity (Pseudomonas aeruginosa [29]): 10.5%
fractional inhibitory concentration index (FICI) (Escherichia coli [22]): 0.5
fractional inhibitory concentration index (FICI) (Pseudomonas aeruginosa [23]): 0.5
